The source of these data is patent publication US6933285B2, “Flavin N-oxides: new anti-cancer agents and pathogen eradication agents” (The Ohio State University, priority 2002, dated 2005).

SMILES strings stand for the structures.

For one data set, the system named is bacteriophage Φ6. To be noted: platelet concentrates, normal oxygen tension, UVA; cited from earlier work.
Data set [1] deals with non-enveloped parvoviruses. To be noted: cited from earlier work.
The nature of a further data set: Water solubility. It is filed as physicochemical. The text has this:
Riboflavin N-oxide, is one example of a flavin N-oxide, it is water soluble and electrically neutral. Additionally, upon fragmentation of the neutral radical, riboflavin N-oxide forms the hydroxyl radical, which damages the nucleic acid, and riboflavin, vitamin B2, which is generally regarded as safe in humans.
In the methods of the present invention, the flavin N-oxides are introduced to the composition containing the blood products. It is preferred that the flavin N-oxides of the present invention are water-soluble. By “water soluble” we mean that it is preferred that the solubility of the flavin N-oxides is at least 100 micromolar in water. An exemplary flavin N-oxide for the methods of the present invention is riboflavin N-oxide. Once introduced to the blood product composition, riboflavin N-oxide, which is electrically neutral, may passively transport into cells, where it is enzymatically activated to form a radical anion. Additionally, riboflavin N-oxide may be activated by electromagnetic radiation. When electromagnetic radiation is used as the activator, the wavelength of light is preferably in the visible region.

Data set [2] has as its system PA-Lymphoblastoid Cell Line. The data set is described as follows: PA-Lymphoblastoid cell viability under oxygen deprivation in the presence of sensitizers. To be noted: PA-Lymphoblastoid cells; for cell count at Time (hour) 0 / cell count at Time (hour) 4 / cell count at Time (hour) 20: solutions and cells bubbled with nitrogen 15 minutes; for cell count at Time (hour) 0: time 0 hour; for cell count at Time (hour) 4: time 4 hour; for cell count at Time (hour) 20: time 20 hour. It is filed as cell-based. As for the experimental part:
PA-Lymphoblastoid Cell Line: Study of the effect of oxygen deprivation in the presence of 3 sensitizers Six solutions were prepared having the solutions and the cells from each of the 6 sets were “bubbled” with nitrogen separately for 15 minutes before being mixed.
The results of this study are shown graphically in FIG. 5.

As to `COc1c2occc2cc2ccc(=O)oc12` [8-MOP], in the data set with bacteriophage Φ6, the “inactivation of the virus bacteriophage Φ6” value is “completely inactivate”.
Turning to `Cc1oc2c(C)c3oc(=O)cc(C)c3cc2c1CN` [AMT], the “inactivation of the virus bacteriophage Φ6” value in the data set on bacteriophage Φ6 is listed as “completely inactivate”. Further, in data set [1], the “potency towards the non-enveloped parvoviruses” value was “limited potency”.
As to `Cc1cc2c(cc1C)[n+]([O-])c1c(=O)[nH]c(=O)nc-1n2CC(O)C(O)C(O)CO` (centres unmarked) [RBO, riboflavin N-oxide], the water solubility result in “Water solubility” is given as “water soluble”. Further, the hypoxic toxicity result in data set [2] (oxygen deprivation) is recorded as “high hypoxic toxicity”. In data set [2], the “cell count at Time (hour) 0” value is recorded as 0.45 million cells/mL, the “cell count at Time (hour) 4” value is given as 0.46 million cells/mL and the “cell count at Time (hour) 20” value is on record as 0.06 million cells/mL.
In the case of `Cc1cc2nc3c(=O)[nH]c(=O)nc-3n(C[C@H](O)[C@H](O)[C@H](O)CO)c2cc1C` [Riboflavin (RB), Riboflavin], in data set [2], the “cell count at Time (hour) 0” value came out at 1 million cells/mL, the “cell count at Time (hour) 4” value is 0.9 million cells/mL and the “cell count at Time (hour) 20” value was 0.63 million cells/mL.
The like results for `Nc1n[n+]([O-])c2ccccc2[n+]1[O-]` [Tirapazamine (TPZ), Tirapazamine] were, in that order, 0.4 million cells/mL, 0.4 million cells/mL and 0.36 million cells/mL.
